By IC50 is commonly meant the midpoint of a concentration-inhibition curve. By ΔTm is commonly meant the change in melting temperature against a reference sample. By Cmax is commonly meant the highest concentration seen after dosing.

Eight molecules from US20230219925A1, “BENZO FIVE-MEMBERED NITROGEN HETEROCYCLIC COMPOUND AND APPLICATION THEREOF” (GUANGZHOU INSTITUTES OF BIOMEDICINE AND HEALTH CHINESE …, priority 2020, published 2023) can be followed below.

Where two headings read alike, the source gives them in different places.

One data set deals with 22Rv1. The data set can be described thus: Cell viability (Cell-Titer GLO), 22Rv1.
A further data set relates to C4-2B. The experiment in a line: Cell viability (Cell-Titer GLO), C4-2B. The settings on record: read-out: Cell Viability IC50 C4-2B.
Another data set concerns the target T1, RORβ (Homo sapiens, UniProt Q92753).
T1 sequence (Q92753 222-460 limits assumed): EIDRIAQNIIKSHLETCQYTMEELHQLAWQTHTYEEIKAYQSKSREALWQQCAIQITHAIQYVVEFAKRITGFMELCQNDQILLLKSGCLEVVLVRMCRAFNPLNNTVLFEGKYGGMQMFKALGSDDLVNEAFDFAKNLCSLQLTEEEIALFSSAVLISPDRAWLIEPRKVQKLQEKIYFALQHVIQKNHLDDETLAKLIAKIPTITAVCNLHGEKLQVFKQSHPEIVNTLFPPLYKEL
The experiment in a line: Gal4-LBD luciferase selectivity test, RORβ.

The test system of a further data set is LNCaP. The experiment in a line: Cell viability (Cell-Titer GLO), LNCaP.
The target of the next data set is T2, FXR (Homo sapiens, UniProt Q96RI1).
T2 sequence (Q96RI1 262-486 limits assumed): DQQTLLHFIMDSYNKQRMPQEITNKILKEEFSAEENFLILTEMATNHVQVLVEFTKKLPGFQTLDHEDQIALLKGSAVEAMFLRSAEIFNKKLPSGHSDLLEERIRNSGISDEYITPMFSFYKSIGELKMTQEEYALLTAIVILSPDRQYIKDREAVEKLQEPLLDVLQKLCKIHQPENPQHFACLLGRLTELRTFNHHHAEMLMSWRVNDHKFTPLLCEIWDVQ
The data set can be described thus: Gal4-LBD luciferase selectivity test, FXR.

A further data set addresses T3, hRORγ (Homo sapiens, UniProt P51449).
T3 sequence (P51449 1-518): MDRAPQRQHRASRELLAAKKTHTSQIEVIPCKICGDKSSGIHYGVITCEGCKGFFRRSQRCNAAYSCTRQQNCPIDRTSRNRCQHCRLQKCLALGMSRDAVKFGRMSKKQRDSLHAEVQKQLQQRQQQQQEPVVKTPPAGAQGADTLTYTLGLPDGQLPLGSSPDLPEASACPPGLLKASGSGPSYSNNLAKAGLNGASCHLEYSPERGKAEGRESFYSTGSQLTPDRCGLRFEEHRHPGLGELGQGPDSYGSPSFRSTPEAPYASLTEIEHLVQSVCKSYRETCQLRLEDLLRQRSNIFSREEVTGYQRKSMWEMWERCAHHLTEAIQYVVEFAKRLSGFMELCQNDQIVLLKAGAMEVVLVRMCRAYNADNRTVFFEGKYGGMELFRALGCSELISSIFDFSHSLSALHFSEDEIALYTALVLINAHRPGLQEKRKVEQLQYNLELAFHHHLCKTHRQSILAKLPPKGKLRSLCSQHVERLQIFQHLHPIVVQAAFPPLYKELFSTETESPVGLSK
The experiment in a line: protein thermal stability shift assay (TSA). The conditions noted are these: read-out: ΔTm (TSA detection technique), hRORγ 10 μM, compound 200 μM.

The target of another data set is T4, LXRα (Homo sapiens, UniProt Q13133).
T4 sequence (Q13133 209-447 limits assumed): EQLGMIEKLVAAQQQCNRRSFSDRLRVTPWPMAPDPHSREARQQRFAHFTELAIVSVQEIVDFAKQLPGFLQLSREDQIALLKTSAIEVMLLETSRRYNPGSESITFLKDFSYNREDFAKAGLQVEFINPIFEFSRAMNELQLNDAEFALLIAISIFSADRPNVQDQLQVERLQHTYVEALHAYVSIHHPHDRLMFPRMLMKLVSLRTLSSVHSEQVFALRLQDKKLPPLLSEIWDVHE
The experiment in a line: Gal4-LBD luciferase selectivity test, LXRα.

In another data set the target is T5, RORα (Homo sapiens, UniProt P35398).
T5 sequence (P35398 272-510 limits assumed): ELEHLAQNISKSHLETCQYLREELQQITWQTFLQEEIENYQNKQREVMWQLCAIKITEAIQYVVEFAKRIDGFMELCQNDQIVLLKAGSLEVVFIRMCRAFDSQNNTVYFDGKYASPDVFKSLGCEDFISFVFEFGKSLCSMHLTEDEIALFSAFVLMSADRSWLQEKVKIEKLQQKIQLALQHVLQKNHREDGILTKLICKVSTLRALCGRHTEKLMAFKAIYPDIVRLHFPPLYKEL
The data set can be described thus: Gal4-LBD luciferase selectivity test, RORα.

Another data set addresses T6, RORγ (Homo sapiens, UniProt P51449).
T6 sequence (P51449 269-508 limits assumed): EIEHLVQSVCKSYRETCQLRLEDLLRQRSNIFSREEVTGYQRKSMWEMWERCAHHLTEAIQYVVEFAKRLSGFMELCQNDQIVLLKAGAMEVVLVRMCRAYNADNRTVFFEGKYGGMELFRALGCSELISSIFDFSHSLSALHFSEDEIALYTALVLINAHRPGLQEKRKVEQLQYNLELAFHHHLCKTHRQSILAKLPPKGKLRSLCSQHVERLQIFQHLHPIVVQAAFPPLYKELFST
The experiment in a line: luciferase dual reporter gene assay, Gal4-RORγLBD in 293T cells. The conditions noted are these: IC50 (luciferase detection technique), RORγ transcriptional activity, Table 1.

Data set [1] is described as follows: Pharmacokinetic evaluations in SD rats. Format: in vivo. The conditions noted are these: Sprague-Dawley, rat, plasma. As to the method:
Experimental materials: the pharmacokinetic analyses were carried out by Shanghai Medicilon Corporation. Sprague-Dawley (SD) rats were provided by Shanghai Super-B&K Laboratory Animal Corp., Ltd.
The stock solution was orally administered to three SD rats at a dose of 25 mg/kg and administered to three SD rats through intravenous injection at a single dose of 5 mg/kg. Blood was collected from jugular veins before the oral administration and 0.25, 0.5, 1, 2, 4, 6, 8 and 24 hours after the oral administration. Blood was collected from jugular veins before the intravenous injection and 0.083, 0.25, 0.5, 1, 2, 4, 6, 8 and 24 hours after the intravenous injection. About 200 μL of the blood samples were collected into heparinized tubes and then immediately centrifuged at 8000 r/min for 6 minutes to obtain blood plasma. The obtained blood plasma was storaged at −80° C. until analysis.

The test system of the next data set is 22Rv1 xenograft. The conditions noted are these: for TGI: five days a week for three weeks. Here is the method:
Experimental purpose: a xenograft mouse experiment was used for verifying inhibitory effects of the compounds of the present application on tumors in vivo.
Experimental methods: three-week-old male mice (strain: NOD/MrkBomTac-Prkdc^scid) were purchased from Beijing Vital River Laboratory Animal Technology Co., Ltd and used for xenograft tumor establishment. 22Rv1 tumor cells were subcutaneously inoculated on a side of a lower abdomen of each mouse, and each mouse was injected with 3×10^6 cells. […] When the tumor volumes reached about 100 mm^3, the mice were randomly divided into groups (n=6-7 per group) and then administered through oral gavage. […] The length (L) and width (W) of the tumor mass were measured by a caliper, and the volume was expressed in mm^3 and calculated according to the following formula: V=π/6×(L×W^2). TGI was calculated according to the following formula: TGI=[1−(T−T0)/(C−C0)]×100, where T denoted a mean tumor volume on a specific day of the experiment and T0 denoted a mean tumor volume at the beginning of the treatment; similarly, C and C0 denoted a mean tumor volume on a specific day of the experiment and a mean tumor volume of a blank group at the beginning of the treatment, respectively.
Data represented mean tumor volume standard deviation (n=6-7 per group) in each treatment group.

Experimental for C4-2B: (§1) Experimental method: 20 μL of a medium containing 500 to 1000 cells to be detected (the actual number of cells was related to cell cycle and cell volume) was plated into each well of the 384-well clear-bottom microplate. […] An inhibition curve was fitted by GraphPad Prism software, and IC50 was calculated.
Experimental for FXR: (§2) On the day before transfection, cells were prepared in the 96-well plate with a cell density of 1.5×10^4 cells/well. After 24 hours of adherent growth, transient transfection was performed with the transfection reagent Lipo-fectamine 2000 through a method of dual reporter gene co-transfection. The transfection reagent and the plasmids were separately diluted with the Opti-MEM Reagent. […] After 24 hours of incubation, the luciferase dual reporter gene detection assay kit was used for detecting luminescence signals. Three duplicate wells were set for each sample, and IC50 values (half maximal inhibitory concentrations) were calculated by software.
Experimental for LNCaP: as §1
Experimental for LXRα: as §2
Experimental for RORα: as §2
Experimental for RORβ: as §2

Consider `CCS(=O)(=O)c1ccc(C(NC(C)=O)C(=O)Nc2ccc(-c3nc4ccc(C)cc4n3[C@@H](C)c3ccc(C)cc3)cc2)cc1` (single isomer, unassigned) [Example 74], for which the IC50 with 22Rv1 (Homo sapiens, 22Rv1, read-out: Cell Viability IC50 22Rv1) is 10.4 ± 1.01 µM; with C4-2B, 4.19 ± 0.34 µM; on RORβ, over 20 µM; in the data set on LNCaP (Homo sapiens, read-out: Cell Viability IC50 LNCaP), 5.2 ± 0.14 µM; against FXR it was over 20 µM; on LXRα, over 20 µM. Moreover, the IC50 against RORα was over 20 µM; against RORγ it was under 0.1 µM. At hRORγ, the ΔTm at 200 µM is under 5 °C.
The molecule `CCS(=O)(=O)c1ccc(CC(=O)Nc2ccc(-c3nc4ccc(C(F)(F)F)cc4n3[C@H](C)c3ccc(F)cc3)cc2)cc1` [Example 67, (R)-2-(4-(ethylsulfonyl)phenyl)-N-(4-(1-(1-(4-fluorophenyl)ethyl)-6-(trifluoromethyl)-1H-benzo[d]imidazol-2-yl)phenyl)acetamide] returned a Cmax in [1] (iv (5 mg/kg)) of 18400 ng/mL.
Regarding `CCS(=O)(=O)c1ccc(CC(=O)Nc2ccc(-c3nc4ccc(C(F)(F)F)cc4n3[C@@H](C)c3ccc(F)cc3)cc2)cc1` [Example 68, (S)-2-(4-(ethylsulfonyl)phenyl)-N-(4-(1-(1-(4-fluorophenyl)ethyl)-6-(trifluoromethyl)-1H-benzo[d]imidazol-2-yl)phenyl)acetamide], the Cmax worked out at 14800 ng/mL in [1] (iv (5 mg/kg)) and 5730 ng/mL in [1] (po (25 mg/kg)). In addition, the figures for the TGI in the data set with 22Rv1 xenograft (10 mg/kg oral) and in the data set on 22Rv1 xenograft (40 mg/kg oral) were 83% and 109%, respectively. Also, in the data set on 22Rv1 xenograft (22Rv1 mouse xenograft models, all doses), the toxic effect entry is given as “without any apparent toxic effect”. Moreover, the “variations of weights of mice during administration” value in the data set with 22Rv1 xenograft (all doses (10 and 40 mg/kg oral)) was “no apparent variations in weight”.
As to `CCS(=O)(=O)c1ccc(C(NC(C)=O)C(=O)Nc2ccc(-c3nc4cc(C(=O)NC(C)C)ccc4n3[C@@H](C)c3ccc(C)cc3)nc2)cc1` (stereo partly drawn) [Example 84, 2-(5-(2-acetylamino-2-(4-(ethylsulfonyl)phenyl)acetylamino)pyridin-2-yl)-N-isopropyl-1-((S)-1-(p-tolyl)ethyl)-1H-benzo[d]imidazol-5-formamide], the ΔTm at 200 µM on hRORγ fell in the range of 5 to 10 °C. At RORγ, this molecule came in with an IC50 of 1 to 10 µM.
`CCS(=O)(=O)c1ccc(CC(=O)Nc2ccc(-c3nc4cc(C)c(C)cc4n3Cc3ccccc3)cc2)cc1` [Example 85, N-(4-(1-benzyl-5,6-dimethyl-1H-benzo[d]imidazol-2-yl)phenyl)-2-(4-(ethylsulfonyl)phenyl)acetamide]: the ΔTm at 200 µM on hRORγ is under 5 °C. Besides, the IC50 at RORγ is 0.1 to 1 µM.
For `CCS(=O)(=O)c1ccc(CC(=O)Nc2ccc(-c3nc4cc(Cl)c(Cl)cc4n3Cc3ccccc3)cc2)cc1` [Example 86, N-(4-(1-benzyl-5,6-dichloro-1H-benzo[d]imidazol-2-yl)phenyl)-2-(4-(ethylsulfonyl)phenyl)acetamide] the same measures were under 5 °C and 0.1 to 1 µM.
Take `CCS(=O)(=O)c1ccc(CC(=O)Nc2ccc(-c3nc4ccc(C)cc4[nH]3)cc2)cc1` [Example 87, 2-(4-(ethylsulfonyl)phenyl)-N-(4-(6-methyl-1H-benzo[d]imidazol-2-yl)phenyl)acetamide]: the ΔTm at 200 µM on hRORγ was over 10 °C. Moreover, the IC50 at RORγ was 1 to 10 µM.
In the case of `OC(c1ccc(-c2ccc(CN3CCN(Cc4ccncc4)CC3)cc2)c(F)c1)(C(F)(F)F)C(F)(F)F` [SR2211, reference compound], the IC50 came out at 13.3 ± 1.22 µM with 22Rv1 (read-out: Cell Viability IC50 22Rv1, 22Rv1, 72-96 h); 5.38 ± 0.27 µM in the data set with C4-2B (C4-2B, 72-96 h); 6.14 ± 0.04 µM in the data set on LNCaP (read-out: Cell Viability IC50 LNCaP, 72-96 h).
